Test results taken from publication PMC3141093 (2011).

Columns and labels:
[1] = molecular target: anti-METH monoclonal antibody (mAb) generated from mice immunized with (+)-METH HSMO9 BSA MCV; test: mAb affinity; format: binding, Mus musculus
[2] = molecular target: anti-METH monoclonal antibody (mAb) generated from mice immunized with (+)-METH HSMO9 BSA MCV; test: mAb affinity; format: binding, Mus musculus; remark: listed apart in the source

| SMILES | Ki [1] [nM] | Kd [2] [nM] |
| --- | --- | --- |
| CN[C@@H](C)Cc1ccc2c(c1)OCO2 [(+)-MDMA] | 1.1 |  |
| CN[C@@H](C)Cc1ccccc1 [(+)-METH] |  | 6.8 |
